# In US10174037B2, “Dihydropyrazolopyrimidinone compounds as PDE2 inhibitors” (Merck Sharp & Dohme Corp., priority 2015, dated 2019):
# Molecular target: human PDE2A1 (Homo sapiens (Human), UniProt O00408)
# Assay: PDE selectivity IMAP FP assay, human PDE2A1
# Type: biochemical
# Conditions: Human PDE2; Lab B; read-out: Human PDE2 Ki (nM) Lab B
# Procedure: Selectivity for PDE2, as compared to other PDE families, was assessed using the IMAP® technology. Human PDE10A2 enzyme was prepared from cytosolic fractions of transiently transfected HEK cells.
# A Labcyte POD 810 (Labcyte, Sunnyvale, Calif.) was used to dispense 200 nL from each well of the titration plate to make eleven copies of the assay plate for each titration, one copy for each PDE enzyme. A solution of each enzyme (dilution from aliquots, sufficient to produce 20% substrate conversion) and a separate solution of FAM-labeled cAMP or FAM-labeled cGMP from Molecular Devices (Sunnyvale, Calif., product # R7506 or cGMP#R7508), at a final concentration of 50 nM were made in the assay buffer (10 mM Tris HCl, pH 7.2, 10 mM MgCl2, 0.05% NaN3 0.01% Tween-20, and 1 mM DTT). Note that the substrate for PDE2 is 50 nM FAM cAMP containing 1000 nM of cGMP. The enzyme and the substrate were then added to the assay plates in two consecutive additions of 10 μL and then shaken to mix. The reaction was allowed to proceed at room temperature for 60 minutes. A binding solution was then made from the kit components, comprised of 80% Solution A, 20% Solution B and binding reagent at a volume of 1/600 the total binding solution. The enzymatic reaction was stopped by addition of 60 μL of the binding solution to each well of the assay plate. […] The plates were incubated at room temperature for one hour, then the parallel and perpendicular fluorescence was measured using a Tecan Genios Pro plate reader (Tecan, Switzerland). […] The intrinsic PDE2 inhibitory activity of a compound which may be used in accordance with the present invention may be determined by these assays. […]
# The PDE2 Ki is a measure of the ability of the test compound to inhibit the action of the PDE2 enzyme.
# human PDE2A1, sequence (O00408 other isoform, or with tags, fused parts or gaps): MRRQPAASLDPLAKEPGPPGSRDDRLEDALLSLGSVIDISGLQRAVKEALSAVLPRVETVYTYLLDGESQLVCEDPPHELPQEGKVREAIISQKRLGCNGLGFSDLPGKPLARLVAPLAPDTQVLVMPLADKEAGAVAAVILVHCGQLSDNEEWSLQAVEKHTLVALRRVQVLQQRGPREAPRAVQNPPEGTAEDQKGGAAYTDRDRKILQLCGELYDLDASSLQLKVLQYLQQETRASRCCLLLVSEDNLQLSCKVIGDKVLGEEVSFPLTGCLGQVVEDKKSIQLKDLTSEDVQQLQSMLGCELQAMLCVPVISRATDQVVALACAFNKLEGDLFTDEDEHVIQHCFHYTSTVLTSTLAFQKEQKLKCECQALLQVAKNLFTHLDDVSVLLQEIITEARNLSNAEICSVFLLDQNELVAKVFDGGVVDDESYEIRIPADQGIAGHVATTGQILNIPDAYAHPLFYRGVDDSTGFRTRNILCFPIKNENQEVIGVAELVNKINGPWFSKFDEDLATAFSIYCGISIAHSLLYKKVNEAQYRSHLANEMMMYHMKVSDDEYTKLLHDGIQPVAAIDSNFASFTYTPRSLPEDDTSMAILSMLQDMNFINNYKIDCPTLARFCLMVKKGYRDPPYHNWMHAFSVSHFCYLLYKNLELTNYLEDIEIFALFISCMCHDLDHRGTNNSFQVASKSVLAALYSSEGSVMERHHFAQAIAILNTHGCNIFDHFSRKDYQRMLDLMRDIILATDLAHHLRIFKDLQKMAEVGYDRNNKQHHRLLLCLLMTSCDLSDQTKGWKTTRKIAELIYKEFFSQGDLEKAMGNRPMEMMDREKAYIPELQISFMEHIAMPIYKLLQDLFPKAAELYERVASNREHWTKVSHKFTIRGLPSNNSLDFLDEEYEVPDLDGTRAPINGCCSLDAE
row,SMILES,Ki
1,"CCC(c1ccc(C(F)F)c(F)c1)n1nc(CF)c2c(=O)[nH]c(N(C)C)nc21 (single isomer, unassigned) [Example 344, (R)- or (S)-1-(1-(4-(Difluoromethyl)-3-fluorophenyl)propyl)-6-(dimethylamino)-3-(fluoromethyl)-1H-pyrazolo[3,4-d]pyrimidin-4(5H)-one]",6.3 nM
2,"CC(c1ccc(CC(F)(F)F)cc1)n1nc(CF)c2c(=O)[nH]c(N(C)C)nc21 (single isomer, unassigned) [Example 175, (S)- or (R)-6-(Dimethylamino)-3-(fluoromethyl)-1-(1-(4-(2,2,2-trifluoroethyl)phenyl)ethyl)-1H-pyrazolo[3,4-d]pyrimidin-4(5H)-one]",0.39 nM
3,"CC(c1ccc(C(C)(F)F)cc1F)n1nc(CF)c2c(=O)[nH]c(N(C)C)nc21 (single isomer, unassigned) [Example 208, (R)- or (S)-1-(1-(4-(1,1-Difluoroethyl)-2-fluorophenyl)ethyl)-6-(dimethylamino)-3-(fluoromethyl)-1H-pyrazolo[3,4-d]pyrimidin-4(5H)-one]",20 nM
4,"CCC(c1ccc(OC(F)F)c(F)c1)n1nc(CF)c2c(=O)[nH]c(N(C)C)nc21 (single isomer, unassigned) [Example 341, (S)- or (R)-1-(1-(4-(Difluoromethoxy)-3-fluorophenyl)propyl)-6-(dimethylamino)-3-(fluoromethyl)-1H-pyrazolo[3,4-d]pyrimidin-4(5H)-one]",0.15 nM
5,"CN(C)c1nc2c(c(CF)nn2C(c2ccc(C(F)(F)F)cc2)C2CC2)c(=O)[nH]1 (single isomer, unassigned) [Example 178, (R)- or (S)-1-(Cyclopropyl(4-(trifluoromethyl)phenyl)methyl)-6-(dimethylamino)-3-(fluoromethyl)-1H-pyrazolo[3,4-d]pyrimidin-4(5H)-one]",1.1 nM
6,"CC[C@@H](O)c1nn([C@@H](C)c2ccc(C(F)(F)F)cc2)c2nc(O)[nH]c(=O)c12 (mixture of isomers) [Example 294, (R,S)- and (R,R)- and (S,S)- and (S,R)-6-Hydroxy-3-(1-hydroxypropyl)-1-(1-(4-(trifluoromethyl)phenyl)ethyl)-1H-pyrazolo[3,4-d]pyrimidin-4(5H)-one]",105 nM

# The remaining compounds from weak to strong by Ki, led by results:
row,Ki,SMILES
1,629 nM,"CC(c1ccc(OC(F)F)cc1)n1nc(C(F)(F)F)c2c(=O)[nH]c(O)nc21 (single isomer, unassigned) [Example 315, (R)- or (S)-1-{1-[4-(Difluoromethoxy)phenyl]ethyl}-6-hydroxy-3-(trifluoromethyl)-1,5-dihydro-4H-pyrazolo[3,4-d]pyrimidin-4-one]"
2,43 nM,"O=c1[nH]c(O)nc2c1c(C(F)F)nn2C(CC(F)(F)F)c1ccc(C(F)(F)F)cc1 (single isomer, unassigned) [Example 272]"
3,2.8 nM,"CCC(c1ccc(C(C)(F)F)cc1F)n1nc(CO)c2c(=O)[nH]c(N(C)C)nc21 (single isomer, unassigned) [Example 110, (R)- or (S)-1-(1-(4-(1,1-Difluoroethyl)-2-fluorophenyl)propyl)-6-(dimethylamino)-3-(hydroxymethyl)-1H-pyrazolo[3,4-d]pyrimidin-4(5H)-one]"
4,1.2 nM,"CN(C)c1nc2c(c(CF)nn2C(c2ccc(C(F)(F)F)c(F)c2)C2CC2)c(=O)[nH]1 (single isomer, unassigned) [Example 180, (R)- or (S)-1-(Cyclopropyl(3-fluoro-4-(trifluoromethyl)phenyl)methyl)-6-(dimethylamino)-3-(fluoromethyl)-1H-pyrazolo[3,4-d]pyrimidin-4(5H)-one]"
5,0.08 nM,"CCC(c1ccc(C(F)F)cc1)n1nc(CF)c2c(=O)[nH]c(N(C)C)nc21 (single isomer, unassigned) [Example 347, (S)- or (R)-1-(1-(4-(Difluoromethyl)phenyl)propyl)-6-(dimethylamino)-3-(fluoromethyl)-1H-pyrazolo[3,4-d]pyrimidin-4(5H)-one]"
